Publication PMC6100082, “Pyridine-Ureas as Potential Anticancer Agents: Synthesis and In Vitro Biological Evaluation” (Molecules : A Journal of Synthetic Chemistry and Natural …, 2018)

How the values were obtained:
[1] = system: IGROV1; assay: NCI one-dose SRB assay (Ovarian Cancer); type: cell-based, human; details: for inhibition at 10 µM: Homo sapiens, IGROV-1, IGROV1, 10 μM, read-out: Percentage growth inhibition (GI%); for Growth Percent: IGROV1, 1.00E-5 Molar
Method: (§1) The structures of all the newly prepared pyridine-ureas 8a–n were submitted to the National Cancer Institute (NCI) Developmental Therapeutic Program. Eight compounds 8b, 8d, 8e, 8i, 8j and 8l–n were selected to be examined for their in vitro growth inhibitory activity. The anticancer assays were carried out according to the protocol of the Drug Evaluation Branch, NCI, Bethesda. The selected pyridine-ureas were tested at one dose primary anticancer assay against a panel of approximately 58 cancer lines (concentration 10^−5 M). The tested human cancer cell lines emerged from nine different cancer subtypes: leukemia, colon, melanoma, ovarian, lung, CNS, renal, breast and prostate cancers. The sulforhodamine B (SRB) protein assay was adopted to estimate the cell viability and growth. The results were reported as mean-graph of the percentage growth of the treated cells, and presented as percentage growth inhibition (GI%) caused by the test compounds (Table 2).
(§2) The anticancer assays were performed in accordance with the protocol of the Drug Evaluation Branch, NCI, Bethesda. A 48 h drug exposure protocol was used and sulforhodamine B (SRB) protein assay was applied to estimate the cell viability and growth, as reported earlier.

[2] = system: OVCAR-8; assay: NCI one-dose SRB assay (Ovarian Cancer); type: cell-based, human; details: for inhibition at 10 µM: Homo sapiens, OVCAR-8, 10 μM, read-out: Percentage growth inhibition (GI%); for Growth Percent: OVCAR-8, 1.00E-5 Molar
Method: as §1, §2

[3] = system: OVCAR-4; assay: NCI one-dose SRB assay (Ovarian Cancer); type: cell-based, human; details: for inhibition at 10 µM: Homo sapiens, OVCAR-4, 10 μM, read-out: Percentage growth inhibition (GI%); for Growth Percent: OVCAR-4, 1.00E-5 Molar
Method: as §1, §2

[4] = system: SK-OV-3; assay: NCI one-dose SRB assay (Ovarian Cancer); type: cell-based, human; details: for inhibition at 10 µM: Homo sapiens, SK-OV-3, 10 μM, read-out: Percentage growth inhibition (GI%); for Growth Percent: SK-OV-3, 1.00E-5 Molar
Method: as §1, §2

[5] = system: NCI/ADR-RES; assay: NCI one-dose SRB assay (Ovarian Cancer); type: cell-based, human; details: for Growth Percent: 1.00E-5 Molar; for inhibition at 10 µM: Homo sapiens, read-out: Percentage growth inhibition (GI%)
Method: as §1, §2

[6] = system: OVCAR-3; assay: NCI one-dose SRB assay (Ovarian Cancer); type: cell-based, human; details: for inhibition at 10 µM: Homo sapiens, OVCAR-3, 10 μM, read-out: Percentage growth inhibition (GI%); for Growth Percent: OVCAR-3, 1.00E-5 Molar
Method: as §1, §2

[7] = system: OVCAR-5; assay: NCI one-dose SRB assay (Ovarian Cancer); type: cell-based, human; details: for inhibition at 10 µM: Homo sapiens, OVCAR-5, 10 μM, read-out: Percentage growth inhibition (GI%); for Growth Percent: OVCAR-5, 1.00E-5 Molar
Method: as §1, §2

[8] = system: SNB-19; assay: NCI one-dose SRB assay (CNS Cancer); type: cell-based, human; details: for inhibition at 10 µM: Homo sapiens, SNB-19, 10 μM, read-out: Percentage growth inhibition (GI%); for Growth Percent: SNB-19, 1.00E-5 Molar
Method: as §1, §2

[9] = system: SNB-75; assay: NCI one-dose SRB assay (CNS Cancer); type: cell-based, human; details: for inhibition at 10 µM: Homo sapiens, SNB-75, 10 μM, read-out: Percentage growth inhibition (GI%); for Growth Percent: SNB-75, 1.00E-5 Molar
Method: as §1, §2

[10] = system: SF-295; assay: NCI one-dose SRB assay (CNS Cancer); type: cell-based, human; details: for inhibition at 10 µM: Homo sapiens, SF-295, 10 μM, read-out: Percentage growth inhibition (GI%); for Growth Percent: SF-295, 1.00E-5 Molar
Method: as §1, §2

[11] = system: PC-3; assay: NCI one-dose SRB assay (Prostate); type: cell-based, human; details: for inhibition at 10 µM: Homo sapiens, PC-3, 10 μM, read-out: Percentage growth inhibition (GI%); for Growth Percent: PC-3, 1.00E-5 Molar
Method: as §1, §2

[12] = system: DU-145; assay: NCI one-dose SRB assay (Prostate); type: cell-based, human; details: for Growth Percent: DU-145, 1.00E-5 Molar; for inhibition at 10 µM: Homo sapiens, DU-145, 10 μM, read-out: Percentage growth inhibition (GI%)
Method: as §1, §2

[13] = system: NCI 58 cell line panel; assay: NCI one-dose SRB assay, whole panel / subpanel summary; type: cell-based, human; details: for inhibition at 10 µM: Homo sapiens, one dose, read-out: mean inhibition (mean % growth inhibition over NCI 58 cell line panel); for Mean Growth Percent: One Dose Mean Graph, 1.00E-5 Molar
Method: as §1, §2

[14] = system: A498; assay: NCI one-dose SRB assay (Renal Cancer); type: cell-based, human; details: for Growth Percent: A498, 1.00E-5 Molar; for inhibition at 10 µM: Homo sapiens, A498, 10 μM, read-out: Percentage growth inhibition (GI%)
Method: as §1, §2

[15] = system: SN12C; assay: NCI one-dose SRB assay (Renal Cancer); type: cell-based, human; details: for Growth Percent: 1.00E-5 Molar; for inhibition at 10 µM: Homo sapiens, read-out: Percentage growth inhibition (GI%)
Method: as §1, §2

[16] = system: UO-31; assay: NCI one-dose SRB assay (Renal Cancer); type: cell-based, human; details: for inhibition at 10 µM: Homo sapiens, UO-31, 10 μM, read-out: Percentage growth inhibition (GI%); for Growth Percent: UO-31, 1.00E-5 Molar
Method: as §1, §2

[17] = system: RXF 393; assay: NCI one-dose SRB assay (Renal Cancer); type: cell-based, human; details: for inhibition at 10 µM: Homo sapiens, RXF 393, 10 μM, read-out: Percentage growth inhibition (GI%); for Growth Percent: RXF 393, 1.00E-5 Molar
Method: as §1, §2

[18] = system: 786-0; assay: NCI one-dose SRB assay (Renal Cancer); type: cell-based, human; details: for Growth Percent: 786-0, 1.00E-5 Molar; for inhibition at 10 µM: Homo sapiens, 786-0, 10 μM, read-out: Percentage growth inhibition (GI%)
Method: as §1, §2

[19] = system: TK-10; assay: NCI one-dose SRB assay (Renal Cancer); type: cell-based, human; details: for inhibition at 10 µM: Homo sapiens, TK-10, 10 μM, read-out: Percentage growth inhibition (GI%); for Growth Percent: TK-10, 1.00E-5 Molar
Method: as §1, §2

[20] = system: MCF7; assay: NCI one-dose SRB assay (Breast Cancer); type: cell-based, human; details: for inhibition at 10 µM: Homo sapiens, MCF7, 10 μM, read-out: Percentage growth inhibition (GI%); for Growth Percent: MCF7, 1.00E-5 Molar
Method: as §1, §2

[21] = system: MDA-MB-468; assay: NCI one-dose SRB assay (Breast Cancer); type: cell-based, human; details: for inhibition at 10 µM: Homo sapiens, MDA-MB-468, 10 μM, read-out: Percentage growth inhibition (GI%); for Growth Percent: MDA-MB-468, 1.00E-5 Molar
Method: as §1, §2

[22] = system: HS 578T; assay: NCI one-dose SRB assay (Breast Cancer); type: cell-based, human; details: for Growth Percent: 1.00E-5 Molar; for inhibition at 10 µM: Homo sapiens, read-out: Percentage growth inhibition (GI%)
Method: as §1, §2

[23] = system: BT-549; assay: NCI one-dose SRB assay (Breast Cancer); type: cell-based, human; details: for Growth Percent: BT-549, 1.00E-5 Molar; for inhibition at 10 µM: Homo sapiens, BT-549, 10 μM, read-out: Percentage growth inhibition (GI%)
Method: as §1, §2

[24] = system: T-47D; assay: NCI one-dose SRB assay (Breast Cancer); type: cell-based, human; details: for Growth Percent: 1.00E-5 Molar; for inhibition at 10 µM: Homo sapiens, T47D, read-out: Percentage growth inhibition (GI%)
Method: as §1, §2

[25] = system: MDA-MB-231; assay: NCI one-dose SRB assay (Breast Cancer); type: cell-based, human; details: for inhibition at 10 µM: Homo sapiens, MDA-MB-231, 10 μM, read-out: Percentage growth inhibition (GI%); for Growth Percent: MDA-MB-231/ATCC, 1.00E-5 Molar
Method: as §1, §2

[26] = system: UACC-257; assay: NCI one-dose SRB assay (Melanoma); type: cell-based, human; details: for inhibition at 10 µM: Homo sapiens, UACC-257, 10 μM, read-out: Percentage growth inhibition (GI%); for Growth Percent: UACC-257, 1.00E-5 Molar
How it was run: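 Percentage growth inhibition (GI%) was calculated from treated-cell growth measured by SRB protein assay following a 48 h exposure at 10^−5 M.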

## COc1cccc(NC(=O)Nc2ccc(-c3ccc(OC)c(OC)c3)nc2C)c1 [Compound 8m, 1-(6-(3,4-Dimethoxyphenyl)-2-methylpyridin-3-yl)-3-(3-methoxyphenyl) Urea]
[1]
  inhibition at 10 µM: < 10%
  Growth Percent: 112.08%
[2]
  inhibition at 10 µM: < 10%
  Growth Percent: 102.37%
[3]
  inhibition at 10 µM: < 10%
  Growth Percent: 126.33%
[4]
  inhibition at 10 µM: < 10%
  Growth Percent: 99.49%
[5]
  Growth Percent: 92.25%
  inhibition at 10 µM: < 10%
[6]
  inhibition at 10 µM: < 10%
  Growth Percent: 101.69%
[7]
  inhibition at 10 µM: < 10%
  Growth Percent: 104.54%
[8]
  inhibition at 10 µM: < 10%
  Growth Percent: 115.50%
[9]
  inhibition at 10 µM: < 10%
  Growth Percent: 104.39%
[10]
  inhibition at 10 µM: < 10%
  Growth Percent: 99.68%
[11]
  inhibition at 10 µM: 41%
  Growth Percent: 59.08%
[12]
  Growth Percent: 99.53%
  inhibition at 10 µM: < 10%
[13]
  inhibition at 10 µM: 8%
  Mean Growth Percent: 92.83%
[14]
  Growth Percent: 85.18%
  inhibition at 10 µM: 15%
[15]
  Growth Percent: 93.61%
  inhibition at 10 µM: < 10%
[16]
  inhibition at 10 µM: 20%
  Growth Percent: 80.45%
[17]
  inhibition at 10 µM: < 10%
  Growth Percent: 108.45%
[18]
  Growth Percent: 92.27%
  inhibition at 10 µM: < 10%
[19]
  inhibition at 10 µM: < 10%
  Growth Percent: 96.16%
other
  melting point: 243 to 245 °C
[20]
  inhibition at 10 µM: 10%
  Growth Percent: 90.01%
[21]
  inhibition at 10 µM: < 10%
  Growth Percent: 99.00%
[22]
  Growth Percent: 99.31%
  inhibition at 10 µM: < 10%
[23]
  Growth Percent: 87.21%
  inhibition at 10 µM: 13%
[24]
  Growth Percent: 81.11%
  inhibition at 10 µM: 19%
[25]
  inhibition at 10 µM: < 10%
  Growth Percent: 106.37%
[26]
  inhibition at 10 µM: < 10%
  Growth Percent: 97.19%

## COc1ccc(-c2ccc(NC(=O)Nc3ccc(Cl)cc3)c(C)n2)cc1 [Compound 8d, 1-(4-Chlorophenyl)-3-(6-(4-methoxyphenyl)-2-methylpyridin-3-yl) Urea]
[1]
  inhibition at 10 µM: 17%
  Growth Percent: 83.85%
[2]
  inhibition at 10 µM: < 10%
  Growth Percent: 93.26%
[3]
  inhibition at 10 µM: 26%
  Growth Percent: 74.67%
[4]
  inhibition at 10 µM: 18%
  Growth Percent: 82.66%
[5]
  Growth Percent: 92.03%
  inhibition at 10 µM: < 10%
[6]
  inhibition at 10 µM: < 10%
  Growth Percent: 101.66%
[7]
  inhibition at 10 µM: < 10%
  Growth Percent: 93.01%
[8]
  inhibition at 10 µM: < 10%
  Growth Percent: 94.20%
[9]
  inhibition at 10 µM: 16%
  Growth Percent: 84.87%
[10]
  inhibition at 10 µM: < 10%
  Growth Percent: 97.10%
[11]
  inhibition at 10 µM: 24%
  Growth Percent: 76.01%
[12]
  Growth Percent: 98.63%
  inhibition at 10 µM: < 10%
[13]
  inhibition at 10 µM: 14%
  Mean Growth Percent: 86.24%
[14]
  Growth Percent: 79.24%
  inhibition at 10 µM: 21%
[15]
  Growth Percent: 98.33%
  inhibition at 10 µM: < 10%
[16]
  inhibition at 10 µM: 11%
  Growth Percent: 89.14%
[17]
  inhibition at 10 µM: < 10%
  Growth Percent: 98.51%
[18]
  Growth Percent: 90.10%
  inhibition at 10 µM: 10%
[19]
  inhibition at 10 µM: < 10%
  Growth Percent: 102.41%
other
  melting point: 231 to 232 °C
[20]
  inhibition at 10 µM: 26%
  Growth Percent: 74.74%
[21]
  inhibition at 10 µM: < 10%
  Growth Percent: 91.54%
[22]
  Growth Percent: 98.36%
  inhibition at 10 µM: < 10%
[23]
  Growth Percent: 96.71%
  inhibition at 10 µM: < 10%
[24]
  Growth Percent: 72.90%
  inhibition at 10 µM: 28%
[25]
  inhibition at 10 µM: < 10%
  Growth Percent: 97.34%
[26]
  inhibition at 10 µM: 22%
  Growth Percent: 78.79%
